PubChem BioAssay (NCI)
Where “and” joins values, the source holds several entries; their conditions need not be identical. Equal entries are not always repeated.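 Assay format: 96-well plates, 48-hour exposure. GI50 marks 50% less growth. TGI denotes the concentration required for complete inhibition of growth.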

Tests used:
Assay in all cases: inhibition of tumour cell growth, NCI panel, 48 h
[1] = tested on: SF-295 CNS
[2] = tested on: T-47D breast
[3] = tested on: MALME-3M melanoma
[4] = tested on: U251 CNS
[5] = tested on: UACC-62 melanoma
[6] = tested on: SNB-19 CNS
[7] = tested on: OVCAR-4 ovarian
[8] = tested on: SF-268 CNS
[9] = tested on: UACC-257 melanoma
[10] = tested on: A498 renal
[11] = tested on: MDA-MB-435
[12] = tested on: HCC-2998 colon
[13] = tested on: CAKI-1 renal
[14] = tested on: HOP-92 NSCLC
[15] = tested on: DU-145 prostate
[16] = tested on: IGROV1 ovarian
[17] = tested on: EKVX NSCLC
[18] = tested on: UO-31 renal
[19] = tested on: HS 578T breast
[20] = tested on: SN12C renal
[21] = tested on: RXF 393 renal
[22] = tested on: A549 NSCLC
[23] = tested on: SF-539 CNS
[24] = tested on: HT29 colon
[25] = tested on: SK-MEL-5 melanoma
[26] = tested on: MDA-N
[27] = tested on: 786-0 renal
[28] = tested on: KM12 colon
[29] = tested on: SW-620 colon
[30] = tested on: OVCAR-3 ovarian
[31] = tested on: CCRF-CEM leukemia
[32] = tested on: TK-10 renal
[33] = tested on: MDA-MB-231 breast
[34] = tested on: NCI-H23 lung
[35] = tested on: SR leukemia
[36] = tested on: SK-OV-3 ovarian
[37] = tested on: HCT-15 colon
[38] = tested on: NCI-H460 lung
[39] = tested on: K-562 leukemia
[40] = tested on: NCI-H522 lung
[41] = tested on: NCI-H226 lung
[42] = tested on: HOP-62 NSCLC
[43] = tested on: HCT-116 colon
[44] = tested on: SNB-75 CNS
[45] = tested on: SK-MEL-28 melanoma
[46] = tested on: ACHN renal
[47] = tested on: PC-3 prostate
[48] = tested on: COLO 205 colon
[49] = tested on: M14 melanoma
[50] = tested on: OVCAR-8 ovarian
[51] = tested on: NCI/ADR-RES ovarian
[52] = tested on: MOLT-4 leukemia
[53] = tested on: OVCAR-5 ovarian
[54] = tested on: RPMI-8226 leukemia
[55] = tested on: MCF7 breast
[56] = tested on: SK-MEL-2 melanoma
[57] = tested on: LOX IMVI melanoma
[58] = tested on: HL-60(TB) leukemia

`CCN(CC)CCNc1ccc2ncn3c4c(OC)cccc4c(=O)c1c23` was tested, and the TGI [1] was 25.1 µM, the TGI [2] was greater than 100 µM and the TGI [3] was 21.4 µM. It also gave a TGI [4] of 19.3 µM, a TGI [5] of 25.3 µM and a TGI [6] of 46.3 µM. For the same compound, the TGI [7] was 15.4 µM, the TGI [8] was 17.6 µM and the TGI [9] was 69.2 µM. The TGI [10] was 33.4 µM, the TGI [11] was 20.7 µM and the TGI [12] was 18.6 µM. It also gave a TGI [13] greater than 100 µM, a TGI [14] of 18.4 µM and a TGI [15] of 24.2 µM. It also gave a TGI [16] of 34.7 µM, a TGI [17] of 17.7 µM and a TGI [18] of 17.5 µM. The TGI [19] was 30.5 µM, the TGI [20] was 17.7 µM and the TGI [21] was 11.6 µM. It also gave a TGI [22] of 27.6 µM, a TGI [23] of 22.8 µM and a TGI [24] of 36.1 µM. The TGI [25] was 13.3 µM, the TGI [26] was 17.1 µM and the TGI [27] was 75 µM. It also gave a TGI [28] of 17.4 µM, a TGI [29] of 15.9 µM and a TGI [30] of 50.9 µM. It also gave a TGI [31] of 17.3 µM, a TGI [32] of 77.7 µM and a TGI [33] of 25.6 µM. It also gave a TGI [34] of 24.5 µM, a TGI [35] of 20.8 µM and a TGI [36] of 24 µM. It also gave a TGI [37] of 19.2 µM, a TGI [38] of 15.2 µM and a TGI [39] of 23.3 µM. It also gave a TGI [40] of 20.7 µM, a TGI [41] of 20.8 µM and a TGI [42] of 98 µM. It also gave a TGI [43] of 10.1 µM, a TGI [44] of 24.5 µM and a TGI [45] of 21.7 µM. The TGI [46] was 25.2 µM, the TGI [47] was 17.6 µM and the TGI [48] was 16.5 µM. It also gave a TGI [49] of 20.9 µM and a TGI [50] of 55.6 µM.
`O=c1oc2cccnc2n1CCN1CCN(c2ccc(Oc3ccccc3)cc2)CC1` showed a TGI [1] greater than 100 µM, a TGI [2] greater than 100 µM and a TGI [3] greater than 100 µM. It also gave a TGI [4] greater than 100 µM, a TGI [6] greater than 100 µM and a TGI [7] of 75.4 µM. The TGI [8] was greater than 100 µM, the TGI [9] was greater than 100 µM and the TGI [10] was greater than 100 µM. For the same compound, the TGI [11] was greater than 100 µM, the TGI [12] was greater than 100 µM and the TGI [13] was greater than 100 µM. The TGI [51] was greater than 100 µM, the TGI [14] was greater than 100 µM and the TGI [15] was greater than 100 µM. For the same compound, the TGI [16] was greater than 100 µM, the TGI [17] was greater than 100 µM and the TGI [18] was greater than 100 µM. It also gave a TGI [19] greater than 100 µM, a TGI [21] greater than 100 µM and a TGI [52] greater than 100 µM. For the same compound, the TGI [22] was greater than 100 µM, the TGI [53] was greater than 100 µM and the TGI [23] was greater than 100 µM. It also gave a TGI [24] greater than 100 µM, a TGI [54] greater than 100 µM and a TGI [25] greater than 100 µM. It also gave a TGI [26] greater than 100 µM, a TGI [27] greater than 100 µM and a TGI [29] greater than 100 µM. The TGI [55] was greater than 100 µM, the TGI [30] was greater than 100 µM and the TGI [31] was greater than 100 µM. The TGI [32] was greater than 100 µM, the TGI [33] was greater than 100 µM and the TGI [34] was greater than 100 µM. It also gave a TGI [56] greater than 100 µM, a TGI [35] greater than 100 µM and a TGI [36] greater than 100 µM. For the same compound, the TGI [37] was greater than 100 µM, the TGI [57] was greater than 100 µM and the TGI [38] was greater than 100 µM. The TGI [39] was greater than 100 µM, the TGI [40] was greater than 100 µM and the TGI [42] was greater than 100 µM. It also gave a TGI [43] greater than 100 µM, a TGI [44] greater than 100 µM and a TGI [45] greater than 100 µM. For the same compound, the TGI [46] was greater than 100 µM, the TGI [47] was greater than 100 µM and the TGI [49] was greater than 100 µM. For the same compound, the TGI [50] was greater than 100 µM and the TGI [58] was 86.4 µM.
`CC(=O)NC(CCCCNC(=O)OC(C)(C)C)C(=O)O` (configuration not stated) was tested, and the TGI [1] was greater than 100 µM, the TGI [2] was greater than 100 µM and the TGI [3] was greater than 100 µM. It also gave a TGI [4] greater than 100 µM, a TGI [5] greater than 100 µM and a TGI [6] greater than 100 µM. It also gave a TGI [7] greater than 100 µM, a TGI [8] greater than 100 µM and a TGI [9] greater than 100 µM. For the same compound, the TGI [10] was greater than 100 µM, the TGI [11] was greater than 100 µM and the TGI [12] was greater than 100 µM. It also gave a TGI [13] greater than 100 µM, a TGI [51] greater than 100 µM and a TGI [15] greater than 100 µM. For the same compound, the TGI [16] was greater than 100 µM, the TGI [17] was greater than 100 µM and the TGI [18] was greater than 100 µM. It also gave a TGI [52] greater than 100 µM, a TGI [22] greater than 100 µM and a TGI [53] greater than 100 µM. The TGI [24] was greater than 100 µM, the TGI [54] was greater than 100 µM and the TGI [25] was greater than 100 µM. For the same compound, the TGI [26] was greater than 100 µM, the TGI [29] was greater than 100 µM and the TGI [55] was greater than 100 µM. The TGI [30] was greater than 100 µM, the TGI [31] was greater than 100 µM and the TGI [32] was greater than 100 µM. The TGI [33] was greater than 100 µM, the TGI [37] was greater than 100 µM and the TGI [57] was greater than 100 µM. It also gave a TGI [38] greater than 100 µM, a TGI [39] greater than 100 µM and a TGI [40] greater than 100 µM. The TGI [42] was greater than 100 µM, the TGI [43] was greater than 100 µM and the TGI [45] was greater than 100 µM. The TGI [46] was greater than 100 µM, the TGI [47] was greater than 100 µM and the TGI [48] was greater than 100 µM. It also gave a TGI [49] greater than 100 µM, a TGI [50] greater than 100 µM and a TGI [58] greater than 100 µM.
With `CCOCC(=O)N[C@H]1CCc2cc(OC(=O)COCC)c(OC)c(OC)c2-c2ccc(SC)c(=O)cc21` the GI50 [1] was 0.0198 µM, the TGI [3] was greater than 100 µM and the GI50 [4] was 0.0154 µM. The TGI [5] was greater than 100 µM, the GI50 [6] was 0.0283 µM and the TGI [6] was greater than 100 µM. For the same compound, the TGI [7] was greater than 100 µM, the GI50 [8] was 0.0431 µM and the TGI [11] was 0.00412 µM. For the same compound, the GI50 [12] was 0.0211 µM, the TGI [12] was 0.0549 µM and 0.0866 µM and the TGI [51] was 5.49 µM. The TGI [14] was 0.08 µM, the GI50 [15] was 0.0315 µM and the GI50 [16] was 0.0382 µM. It also gave a TGI [16] greater than 100 µM, a GI50 [17] of 32.1 µM and a TGI [17] greater than 100 µM. The GI50 [18] was 0.68 µM, the TGI [18] was greater than 100 µM and the GI50 [20] was 0.0554 µM. For the same compound, the TGI [20] was greater than 100 µM, the TGI [21] was greater than 100 µM and the GI50 [52] was 0.034 µM. The TGI [52] was greater than 100 µM, the GI50 [53] was 0.0549 µM and the TGI [53] was greater than 100 µM. For the same compound, the GI50 [23] was 0.0126 µM, the TGI [23] was 0.061 µM and 0.0554 µM and the TGI [24] was greater than 100 µM. For the same compound, the TGI [54] was greater than 100 µM, the TGI [26] was 0.00611 µM and the GI50 [27] was 0.0568 µM. The TGI [27] was greater than 100 µM, the TGI [29] was greater than 100 µM and the TGI [55] was greater than 100 µM. The TGI [30] was 0.0166 µM, the GI50 [31] was 0.0127 µM and the GI50 [32] was 14.9 µM. It also gave a TGI [32] greater than 100 µM, a GI50 [33] of 0.036 µM and a GI50 [34] of 0.0337 µM. For the same compound, the GI50 [56] was greater than 100 µM, the GI50 [36] was 0.0558 µM and the TGI [37] was 2.85 µM. It also gave a TGI [57] greater than 100 µM, a GI50 [38] of 0.0395 µM and a TGI [39] of 0.0691 µM. For the same compound, the GI50 [40] was 0.0279 µM, the TGI [40] was 0.0389 µM and 0.107 µM and the GI50 [41] was 0.0264 µM. For the same compound, the TGI [41] was 0.0917 µM and 0.0893 µM, the TGI [42] was greater than 100 µM and the TGI [44] was greater than 100 µM. For the same compound, the GI50 [45] was greater than 100 µM, the TGI [45] was greater than 100 µM and the GI50 [46] was 0.0831 µM. It also gave a TGI [46] greater than 100 µM, a GI50 [47] of 0.0164 µM and a TGI [48] of 0.054 µM. The GI50 [49] was 0.0134 µM, the TGI [49] was 0.0762 µM and the GI50 [50] was 0.0365 µM. For the same compound, the TGI [58] was 0.0313 µM and 0.0326 µM.
